Assay results from patent publication US20220267289A1, “SELECTIVE BCRP/ABCG2 TRANSPORTER INHIBITORS AS AGENTS TO ABOLISH RESISTANCE TO ANTI-CANCER AGENTS” (UNIVERSITE GRENOBLE ALPES, priority 2019, published 2022).
Like-named read-outs stand apart in the source and are kept apart here.

What was measured:
BCRP/ABCG2 = target: T1, BCRP/ABCG2 (Homo sapiens, UniProt Q9UNQ0); test: BCRP-mediated mitoxantrone efflux inhibition, ABCG2-transfected HEK293 cells, flow cytometry; details: for inhibition at 30 min, 1 μM / inhibition at 30 min, 10 μM / inhibition at 30 min, 1 µM: human, probe mitoxantrone (MX), 4 μM
T1 sequence (Q9UNQ0 1-655): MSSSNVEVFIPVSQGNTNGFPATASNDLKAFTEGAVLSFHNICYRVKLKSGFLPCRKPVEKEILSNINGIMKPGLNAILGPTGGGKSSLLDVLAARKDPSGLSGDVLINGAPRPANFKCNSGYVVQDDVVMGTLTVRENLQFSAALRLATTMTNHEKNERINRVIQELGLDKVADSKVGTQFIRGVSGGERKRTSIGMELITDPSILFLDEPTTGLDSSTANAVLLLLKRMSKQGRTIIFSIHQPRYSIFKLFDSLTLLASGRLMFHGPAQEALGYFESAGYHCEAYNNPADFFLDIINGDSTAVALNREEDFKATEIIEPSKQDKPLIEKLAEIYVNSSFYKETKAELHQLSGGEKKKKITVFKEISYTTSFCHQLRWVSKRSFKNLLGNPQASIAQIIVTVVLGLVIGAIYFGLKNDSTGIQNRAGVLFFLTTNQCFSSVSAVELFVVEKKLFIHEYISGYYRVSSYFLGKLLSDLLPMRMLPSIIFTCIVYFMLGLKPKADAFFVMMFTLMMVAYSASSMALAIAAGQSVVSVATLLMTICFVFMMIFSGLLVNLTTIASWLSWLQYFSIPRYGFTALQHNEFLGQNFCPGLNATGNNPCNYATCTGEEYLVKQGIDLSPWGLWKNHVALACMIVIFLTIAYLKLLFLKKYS
Protocol: The cells were seeded in 96-well plates at a density of 5×10^4 cells/well in 200 μL of medium and incubated overnight. Then the growth medium was changed to fresh medium containing the compounds and in the presence of 4 μM MX as a fluorescent probe for BCRP-mediated efflux at a final concentration of 0.5% (v/v) DMSO. After 30 min incubation at 37° C., the medium was removed, and the cells were washed with 100 μL of Dulbecco's phosphate-buffered saline (DPBS) followed by dissociation of the cells for 5 min at 37° C. mediated by 25 μL trypsin. Finally, trypsin was neutralised with 175 μL of DPBS ice-cold with 2% bovine serum albumin (BSA) and the cells were carefully resuspended. As a selectivity assay, the same experiment was performed for P-gp and MRP1-mediated efflux with 0.5 μM R123 or 0.2 μM cAM as respective fluorescent substrates instead of MX.
Intracellular fluorescence was measured with a MacsQUANT VRB Analyzer flow cytometer (Miltenyi Biotec) with at least 5000 events recorded. While MX was excited at 635 nm and the fluorescence emission recorded in a 655-730 nm window, R123 and cAM were excited at 488 nm and recorded in a 525/50 nm filter. The compound inhibition yield was estimated by the following equation:
where G2FA is the fluorescence emission (a.u.) of accumulated fluorophore in cells expressing the efflux pump incubated with a fluorescent substrate and the test compound. G2FBG is the resulting background fluorescence emission (a.u.) in cells transfected with ABCG2 (no substrate or test compound). G2S is the fluorescence emission (a.u.) of accumulated fluorophore in cells expressing the efflux pump incubated with substrate only. HEKFA is the fluorescence emission (a.u.) of accumulated fluorophore in control cells incubated with the substrate and test compound. HEKFBG is the resulting background fluorescence emission (a.u.) in control cells (no substrate or test compound). All values are given as the geometric mean fluorescence emission (a.u.) in a 655-730 nm filter (635 nm excitation) measured over 5000 events. The tests were performed in triplicate.

P-gp (ABCB1) = target: T2, P-gp (ABCB1) (Homo sapiens, UniProt P08183); test: P-gp-mediated rhodamine 123 efflux inhibition (selectivity assay), ABCB1-transfected NIH/3T3 cells; format: cell-based; details: probe rhodamine 123 (R123), 0.5 μM R123; for inhibition at 30 min, 1 μM: [Inhibitor] 1 μM; for inhibition at 30 min, 10 μM: [Inhibitor] 10 μM
T2 construct: expressed in transfected cells; host or cells: NIH/3T3
T2 sequence (P08183 whole entry): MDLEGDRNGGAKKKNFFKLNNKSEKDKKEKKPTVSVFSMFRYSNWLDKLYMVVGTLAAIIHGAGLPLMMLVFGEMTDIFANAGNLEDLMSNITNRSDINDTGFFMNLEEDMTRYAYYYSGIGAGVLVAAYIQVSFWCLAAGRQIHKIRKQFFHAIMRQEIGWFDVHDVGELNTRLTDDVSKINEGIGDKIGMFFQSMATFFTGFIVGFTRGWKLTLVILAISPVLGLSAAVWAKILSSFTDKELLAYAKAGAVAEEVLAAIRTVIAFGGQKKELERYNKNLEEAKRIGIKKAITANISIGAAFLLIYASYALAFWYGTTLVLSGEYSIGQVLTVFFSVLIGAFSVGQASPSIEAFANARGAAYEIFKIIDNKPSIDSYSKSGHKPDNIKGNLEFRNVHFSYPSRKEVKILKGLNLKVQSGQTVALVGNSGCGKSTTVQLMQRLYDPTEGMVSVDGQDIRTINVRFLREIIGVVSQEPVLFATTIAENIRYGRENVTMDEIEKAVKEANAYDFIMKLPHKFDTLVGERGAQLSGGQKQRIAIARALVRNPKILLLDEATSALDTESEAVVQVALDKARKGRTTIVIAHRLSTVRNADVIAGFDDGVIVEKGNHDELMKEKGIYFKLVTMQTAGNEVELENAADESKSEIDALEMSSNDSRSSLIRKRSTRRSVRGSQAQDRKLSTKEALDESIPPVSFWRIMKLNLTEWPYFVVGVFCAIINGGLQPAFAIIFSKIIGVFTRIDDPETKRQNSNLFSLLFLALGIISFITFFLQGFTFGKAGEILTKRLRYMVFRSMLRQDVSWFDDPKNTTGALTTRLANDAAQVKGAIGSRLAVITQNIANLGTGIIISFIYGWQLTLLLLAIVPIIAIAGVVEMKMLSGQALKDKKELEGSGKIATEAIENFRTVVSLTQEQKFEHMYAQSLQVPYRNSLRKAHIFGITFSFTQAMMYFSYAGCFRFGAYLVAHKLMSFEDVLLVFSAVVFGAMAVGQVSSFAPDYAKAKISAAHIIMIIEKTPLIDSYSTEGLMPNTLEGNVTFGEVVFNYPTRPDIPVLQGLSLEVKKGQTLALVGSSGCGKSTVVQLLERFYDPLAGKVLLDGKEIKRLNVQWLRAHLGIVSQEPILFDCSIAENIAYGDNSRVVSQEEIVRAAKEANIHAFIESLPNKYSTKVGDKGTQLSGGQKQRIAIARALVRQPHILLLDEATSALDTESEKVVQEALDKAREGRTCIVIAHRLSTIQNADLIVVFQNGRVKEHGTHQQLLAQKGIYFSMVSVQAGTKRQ
Protocol: (§1) The tests were performed in triplicate.

MRP1 (ABCC1) = target: T3, MRP1 (ABCC1) (Homo sapiens, UniProt P33527); test: MRP1-mediated calcein-AM efflux inhibition (selectivity assay), ABCC1-transfected Flp-In 293 cells; format: cell-based; details: probe calcein-AM (cAM), 0.2 μM cAM; for inhibition at 30 min, 1 μM: [Inhibitor] 1 μM; for inhibition at 30 min, 10 μM: [Inhibitor] 10 μM
T3 construct: expressed in transfected cells; host or cells: Flp-In 293
T3 sequence (P33527 whole entry): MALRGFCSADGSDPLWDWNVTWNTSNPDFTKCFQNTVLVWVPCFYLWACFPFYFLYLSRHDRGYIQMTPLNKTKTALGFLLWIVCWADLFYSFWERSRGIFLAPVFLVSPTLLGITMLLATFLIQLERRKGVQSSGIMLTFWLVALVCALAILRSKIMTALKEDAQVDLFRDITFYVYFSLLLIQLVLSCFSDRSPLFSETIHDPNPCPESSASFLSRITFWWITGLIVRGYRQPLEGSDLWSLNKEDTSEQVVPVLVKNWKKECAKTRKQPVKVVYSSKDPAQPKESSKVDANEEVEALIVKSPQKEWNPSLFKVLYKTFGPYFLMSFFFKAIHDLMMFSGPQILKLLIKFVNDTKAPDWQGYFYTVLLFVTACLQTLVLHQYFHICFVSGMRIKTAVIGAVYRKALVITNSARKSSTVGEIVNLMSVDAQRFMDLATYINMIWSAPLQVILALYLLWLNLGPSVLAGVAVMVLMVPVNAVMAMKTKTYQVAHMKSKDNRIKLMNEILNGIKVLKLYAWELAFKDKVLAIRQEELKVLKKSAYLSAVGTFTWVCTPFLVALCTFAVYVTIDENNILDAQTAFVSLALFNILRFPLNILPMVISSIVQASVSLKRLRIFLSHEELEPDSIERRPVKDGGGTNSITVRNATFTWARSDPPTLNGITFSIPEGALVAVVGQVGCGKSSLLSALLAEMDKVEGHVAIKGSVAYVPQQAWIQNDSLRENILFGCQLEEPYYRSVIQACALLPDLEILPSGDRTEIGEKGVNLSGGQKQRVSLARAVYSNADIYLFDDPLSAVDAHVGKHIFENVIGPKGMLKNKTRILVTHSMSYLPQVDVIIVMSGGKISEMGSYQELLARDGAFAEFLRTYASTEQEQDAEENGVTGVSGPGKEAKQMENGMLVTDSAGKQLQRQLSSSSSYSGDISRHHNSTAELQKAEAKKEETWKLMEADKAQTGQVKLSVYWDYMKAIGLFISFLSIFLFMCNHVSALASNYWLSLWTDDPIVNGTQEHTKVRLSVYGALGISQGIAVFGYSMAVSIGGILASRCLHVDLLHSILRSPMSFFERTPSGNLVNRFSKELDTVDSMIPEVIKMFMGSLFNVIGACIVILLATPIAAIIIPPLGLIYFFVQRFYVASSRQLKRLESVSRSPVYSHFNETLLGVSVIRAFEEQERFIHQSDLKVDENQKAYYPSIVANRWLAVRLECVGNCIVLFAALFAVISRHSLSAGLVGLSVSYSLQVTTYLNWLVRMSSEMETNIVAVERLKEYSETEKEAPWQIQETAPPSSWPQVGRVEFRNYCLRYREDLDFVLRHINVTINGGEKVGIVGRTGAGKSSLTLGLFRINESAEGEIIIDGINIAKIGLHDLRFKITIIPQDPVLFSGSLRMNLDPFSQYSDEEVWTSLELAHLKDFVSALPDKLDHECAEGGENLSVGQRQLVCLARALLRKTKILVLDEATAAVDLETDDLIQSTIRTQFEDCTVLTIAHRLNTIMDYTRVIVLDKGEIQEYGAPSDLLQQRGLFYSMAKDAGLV
Protocol: as §1

[1] = hydrolysis of tertiary butyl ester to inactive metabolite; cited from earlier work

Row | Compound | melting point | IC50 (BCRP/ABCG2) | inhibition at 30 min, 1 μM (BCRP/ABCG2) | inhibition at 30 min, 10 μM (BCRP/ABCG2) | inhibition at 30 min, 1 μM (P-gp (ABCB1)) | inhibition at 30 min, 10 μM (P-gp (ABCB1)) | inhibition at 30 min, 1 μM (MRP1 (ABCC1)) | inhibition at 30 min, 10 μM (MRP1 (ABCC1)) | inhibition at 30 min, 1 µM (BCRP/ABCG2) | IC50 (BCRP/ABCG2; ABCG2 inhibition, Table 2) | rapidly metabolised, time [1]
1 | CCC(C)[C@H](NC(=O)c1cc(=O)c2c(OCc3ccccc3Br)cccc2o1)C(=O)OC (stereo partly shown) [5a (series 1)] | 123.1 to 125.7 °C | 100 ± 10 nM | 78 ± 9% | 143 ± 22% |  |  |  |  |  |  | 
2 | CCC(C)[C@H](NC(=O)c1cc(=O)c2c(OCc3ccc(Br)cc3)cccc2o1)C(=O)OC (stereo partly shown) [5b (series 1)] |  | 590 ± 80 nM |  | 115 ± 14% |  |  |  |  |  |  | 
3 | COC(=O)[C@H](CC(C)C)NC(=O)c1cc(=O)c2c(OCc3ccccc3Br)cccc2o1 [5c (series 1), methyl (5-((2-bromobenzyl)oxy)-4-oxo-4H-chromene-2-carbonylamino)-L-leucinate] | 60.3 to 60.4 °C | 140 ± 40 nM | 115 ± 17% | 102 ± 21.7% | 7 ± 1.1% | 4.8 ± 0.7% | 20.2 ± 2.7% | 19.2 ± 2.2% | 114% |  | 
4 | COC(=O)[C@@H](NC(=O)c1cc(=O)c2c(OCc3ccccc3Br)cccc2o1)C(C)C [5d (series 1), methyl (5-((2-bromobenzyl)oxy)-4-oxo-4H-chromene-2-carbonylamino)-L-valinate] | 127 to 128.2 °C | 50 ± 30 nM | 87 ± 7% | 148 ± 6.7% | 7.9 ± 0.7% | 6.5 ± 1.9% | 12.6 ± 1.3% | 17.8 ± 0.9% | 86.6% |  | 
5 | COC(=O)[C@H](Cc1ccccc1)NC(=O)c1cc(=O)c2c(OCc3ccc(Br)cc3)cccc2o1 [5f (series 1), methyl (5-((4-bromobenzyl)oxy)-4-oxo-4H-chromene-2-carbonylamino)-L-phenylalaninate] |  |  |  |  | 6.4 ± 1.5% | 6.8 ± 1.4% | 23% | 19% |  |  | 
6 | COC(=O)[C@H](Cc1c[nH]c2ccccc12)NC(=O)c1cc(=O)c2c(OCc3ccccc3Br)cccc2o1 [5g (series 1), methyl (5-((2-bromobenzyl)oxy)-4-oxo-4H-chromene-2-carbonylamino)-L-tryptophanate] | 250 to 252.8 °C |  | 93.7 ± 17% | 39.7 ± 3.7% | 7.4 ± 0.3% | 5.3 ± 0.5% | 23 ± 2.5% | 16 ± 2.5% | 93.7% |  | 
7 | COC(=O)[C@H](Cc1c[nH]c2ccccc12)NC(=O)c1cc(=O)c2c(OCc3ccc(Br)cc3)cccc2o1 [5h (series 1), methyl (5-((4-bromobenzyl)oxy)-4-oxo-4H-chromene-2-carbonylamino)-L-tryptophanate] | 235.3 to 236.2 °C | 480 ± 70 nM | 92 ± 15% | 87.7 ± 12% | 7.4 ± 2.5% | 6.6 ± 1.4% | 10.3% | 17.4% | 96.4% |  | 
8 | COC(=O)[C@@H](Cc1c[nH]c2ccccc12)NC(=O)c1cc(=O)c2c(OCc3ccc(Br)cc3)cccc2o1 [5i (series 1), methyl (5-((4-bromobenzyl)oxy)-4-oxo-4H-chromene-2-carbonylamino)-D-tryptophanate] | 236.2 to 237.9 °C | 290 ± 50 nM | 85 ± 12% | 96.3 ± 19% | 7.2 ± 1.3% | 6.1 ± 1.1% | 11.9% | 12.6% | 84.8% |  | 
9 | CCC(C)[C@H](NC(=O)c1cc(=O)c2c(OCc3ccccc3Br)cccc2o1)C(=O)O (stereo partly drawn) [6a (series 1), (5-((2-bromobenzyl)oxy)-4-oxo-4H-chromene-2-carbonylamino)-L-alloisoleucine] | 242.8 to 243.7 °C |  | 0% | 1.6 ± 3.1% | 7.8% | 7.9 ± 2.3% | 17.1% | 13.1 ± 2.4% |  |  | 
10 | CC[C@@H](C)[C@H](NC(=O)c1cc(=O)c2c(OCc3ccc(Br)cc3)cccc2o1)C(=O)O [6b (series 1), (5-((4-bromobenzyl)oxy)-4-oxo-4H-chromene-2-carbonyl)-L-alloisoleucine] |  |  |  |  | 7.7 ± 1.9% | 7.1 ± 0.6% | 21.9 ± 4.6% | 20.6 ± 1.2% |  |  | 
11 | O=C(N[C@@H](Cc1ccccc1)C(=O)O)c1cc(=O)c2c(OCc3ccc(Br)cc3)cccc2o1 [6d (series 1), (5-((4-bromobenzyl)oxy)-4-oxo-4H-chromene-2-carbonylamino)-L-phenylalanine] |  |  | 4 ± 0.7% | 6.5% |  |  |  |  |  |  | 
12 | O=C(N[C@H](Cc1c[nH]c2ccccc12)C(=O)O)c1cc(=O)c2c(OCc3ccc(Br)cc3)cccc2o1 [6e (series 1), (5-((4-bromobenzyl)oxy)-4-oxo-4H-chromene-2-carbonylamino)-D-tryptophan] | 185.5 to 186.7 °C |  | 6.1 ± 0.6% | 11.2 ± 2% |  |  |  |  |  |  | 
13 | CC[C@@H](C)[C@H](NC(=O)c1cc(=O)c2c(OCc3ccccc3Br)cccc2o1)C(=O)N[C@H](C(=O)OC)C(C)C [7a (series 2)] |  | 70 ± 10 nM |  |  | 0.1% | 0.2% | 11.1 ± 0.8% | 10.8 ± 2.8% | 84.8 ± 7.4% |  | 
14 | COc1ccc2[nH]cc(CCNC(=O)c3cc(=O)c4c(OCc5ccc(Br)cc5Br)cccc4o3)c2c1 [7a (series 3), 5-((2,4-dibromobenzyl)oxy)-N-(2-(5-methoxy-1H-indol-3-yl)ethyl)-4-oxo-4H-chromene-2-carboxamide] |  | 50 ± 10 nM |  |  |  |  |  |  |  |  | 
15 | CC[C@@H](C)[C@H](NC(=O)c1cc(=O)c2c(OCc3ccccc3Br)cccc2o1)C(=O)N[C@@H](CC(C)C)C(=O)OC [7b (series 2)] |  | 70 ± 10 nM |  |  | 1.7 ± 2.4% | 2.4 ± 0.5% | 10.3 ± 0.7% |  | 82.5 ± 9.7% |  | 
16 | COc1ccc2[nH]cc(CCNC(=O)c3cc(=O)c4c(OCc5cc(Br)cc(Br)c5)cccc4o3)c2c1 [7b (series 3), ((3,5-dibromobenzyl)oxy)-N-(2-(5-methoxy-1H-indol-3-yl)ethyl)-4-oxo-4H-chromene-2-carboxamide] |  |  |  |  |  |  |  |  |  | 100 ± 10 nM | 
17 | CC[C@@H](C)[C@H](NC(=O)c1cc(=O)c2c(OCc3ccc(Br)cc3)cccc2o1)C(=O)N[C@H](C(=O)OC)C(C)C [7c (series 2)] |  | 250 ± 100 nM |  |  | 2.4 ± 2.1% | 10.6 ± 0.3% | 11.5 ± 0.4% | 15.3 ± 1.5% | 72.4 ± 7.1% |  | 
18 | CC[C@@H](C)[C@H](NC(=O)c1cc(=O)c2c(OCc3ccc(Br)cc3)cccc2o1)C(=O)N[C@@H](CC(C)C)C(=O)OC [7d (series 2), methyl (5-((4-bromobenzyl)oxy)-4-oxo-4H-chromene-2-carbonylamino)-L-alloisoleucyl-L-leucinate] |  | 110 ± 30 nM |  |  | 3.6 ± 0.2% | 5.9 ± 0.1% | 10.9 ± 1.4% | 14.7 ± 1% | 52.3 ± 5.1% |  | 
19 | COc1ccc2c3c([nH]c2c1)[C@H](CC(C)C)N1C(=O)[C@H](CCC(=O)OC(C)(C)C)NC(=O)[C@@H]1C3 [Ko143] |  |  |  |  |  |  |  |  |  |  | 60 min
20 | COc1ccc2[nH]cc(CCNC(=O)c3cc(=O)c4c(OCc5ccc(Br)cc5)cccc4o3)c2c1 [MBL-II-141, reference compound] |  |  |  |  |  |  |  |  |  | 130 ± 90 nM | 
